Measured values from ChEMBL document CHEMBL1126299, “Synthesis and structure-activity relationships of cephalosporins with C-3' catechol-containing residues” (J Med Chem, 1992).
In brackets after ≈: the same amount, converted by molar mass.

What was measured:
Pseudomonas aeruginosa [1] = assay: microbe, parasite or virus in culture
Description: Minimum inhibitory concentration in Pseudomonas aeruginosa, 18SH constitutive depressed type 1 lactamase producer

Enterobacter cloacae [2] = assay: microbe, parasite or virus in culture
Description: Minimum inhibitory concentration in Enterobacter cloacae, P99- inducible type 1 lactamase producer

Providencia stuartii [3] = assay: microbe, parasite or virus in culture
Description: Minimum inhibitory concentration in Pseudomonas stuartii, DR 442049 constitutive depressed type 1 lactamase producer

Enterobacter cloacae [4] = assay: microbe, parasite or virus in culture; remark: listed apart in the source
Description: Minimum inhibitory concentration in Enterobacter cloacae, DR 401108 constitutive depressed type 1 lactamase producer

Citrobacter freundii [5] = assay: microbe, parasite or virus in culture
Description: Minimum inhibitory concentration in Citrobacter freundii, DR 382031 constitutive depressed type 1

Enterobacter cloacae [6] = assay: microbe, parasite or virus in culture; remark: listed apart in the source
Description: Minimum inhibitory concentration in Enterobacter cloacae, P99+ constitutive depressed type 1 lactamase producer

[7] = The half life period in marmosets; assay type: ADME; details: callithrix, in vivo
[8] = The compound was evaluated for area under the curve in marmosets; assay type: ADME; details: callithrix, in vivo
Providencia stuartii [9] = assay: microbe, parasite or virus in culture; remark: listed apart in the source
Description: Minimum inhibitory concentration in Pseudomonas stuartii, I+442019 inducible type 1 lactamase producer

Citrobacter freundii [10] = assay: microbe, parasite or virus in culture; remark: listed apart in the source
Description: Minimum inhibitory concentration in Citrobacter freundii, I+382010 inducible type 1 lactamase producer

Enterobacter cloacae [11] = assay: microbe, parasite or virus in culture; remark: listed apart in the source
Description: Minimum inhibitory concentration in Enterobacter cloacae, I+401029 inducible type 1 lactamase producer

Pseudomonas aeruginosa [12] = assay: microbe, parasite or virus in culture; remark: listed apart in the source
Description: Minimum inhibitory concentration in Pseudomonas aeruginosa,799/61 permeability mutant

Pseudomonas aeruginosa [13] = assay: microbe, parasite or virus in culture; remark: listed apart in the source
Description: Minimum inhibitory concentration in Pseudomonas aeruginosa,799WT parent organism

Pseudomonas aeruginosa [14] = assay: microbe, parasite or virus in culture; remark: listed apart in the source
Description: Minimum inhibitory concentration in Pseudomonas aeruginosa, 18S inducible type 1 lactamase producer

Escherichia coli [15] = assay: microbe, parasite or virus in culture
Description: In vitro minimum inhibitory concentration against Escherichia coli (DC2 permeability mutant).

Escherichia coli [16] = assay: microbe, parasite or virus in culture; remark: listed apart in the source
Description: In vitro minimum inhibitory concentration against Escherichia coli (DC0 parent organism).

Staphylococcus aureus [17] = assay: microbe, parasite or virus in culture
Description: The compound was tested for minimum inhibitory concentration in Staphylococcus aureus,147N penicillin sensitive Staphylococcus aureus

Pseudomonas aeruginosa [18] = assay: microbe, parasite or virus in culture; remark: listed apart in the source
Description: In vitro minimum inhibitory concentration against Pseudomonas aeruginosa (PU21).

Staphylococcus aureus [19] = assay: microbe, parasite or virus in culture; remark: listed apart in the source
Description: The compound was tested for minimum inhibitory concentration in Staphylococcus aureus Oxford penicillin sensitive Staphylococcus aureus

Description for physchem: The dissociation constant of compound was tested for beta-Lactamase stability

Row | SMILES | MIC (Pseudomonas aeruginosa [1]) [µg/mL] | MIC (Enterobacter cloacae [2]) [µg/mL] | MIC (Providencia stuartii [3]) [µg/mL] | pKa (physchem) | MIC (Enterobacter cloacae [4]) [µg/mL] | MIC (Citrobacter freundii [5]) [µg/mL] | MIC (Enterobacter cloacae [6]) [µg/mL] | half-life [7] [min] | AUC [8] [mg/h/L] | MIC (Providencia stuartii [9]) [µg/mL] | MIC (Citrobacter freundii [10]) [µg/mL] | MIC (Enterobacter cloacae [11]) [µg/mL] | MIC (Pseudomonas aeruginosa [12]) [µg/mL] | MIC (Pseudomonas aeruginosa [13]) [µg/mL] | MIC (Pseudomonas aeruginosa [14]) [µg/mL] | MIC (Escherichia coli [15]) [µg/mL] | MIC (Escherichia coli [16]) [µg/mL] | MIC (Staphylococcus aureus [17]) [µg/mL] | MIC (Pseudomonas aeruginosa [18]) [µg/mL] | MIC (Staphylococcus aureus [19]) [µg/mL]
1 | CCN(CC1=C(C(=O)O)N2C(=O)[C@@H](NC(=O)/C(=N\OC(C)(C)C(=O)O)c3csc(N)n3)C2SC1)C(=O)c1cc(O)c(O)c(Cl)c1 (stereo partly specified) | 0.06 (≈ 0.0878 µM) | 0.125 (≈ 0.183 µM) | 8 (≈ 11.7 µM) | 7.4 | 1 (≈ 1.46 µM) | 1 (≈ 1.46 µM) | 1 (≈ 1.46 µM) | 52.2 | 16.4 | 0.25 (≈ 0.366 µM) | 0.008 (≈ 0.0117 µM) | 0.015 (≈ 0.022 µM) | 0.008 (≈ 0.0117 µM) | 0.008 (≈ 0.0117 µM) | 0.008 (≈ 0.0117 µM) | – | – | – | – | –
2 | CCO/N=C(\C(=O)N[C@@H]1C(=O)N2C(C(=O)O)=C(CNC(=O)c3cc(O)c(O)c(Br)c3)CSC12)c1csc(N)n1 (stereo partly specified) | 4 (≈ 6.24 µM) | 0.015 (≈ 0.0234 µM) | 4 (≈ 6.24 µM) | 6.9 | 128 (≈ 200 µM) | 16 (≈ 24.9 µM) | 8 (≈ 12.5 µM) | 40.2 | 16.97 | 0.125 (≈ 0.195 µM) | 0.008 (≈ 0.0125 µM) | 0.03 (≈ 0.0468 µM) | 0.008 (≈ 0.0125 µM) | 0.015 (≈ 0.0234 µM) | 0.008 (≈ 0.0125 µM) | 0.008 (≈ 0.0125 µM) | 0.008 (≈ 0.0125 µM) | 4 (≈ 6.24 µM) | 0.06 (≈ 0.0935 µM) | 2 (≈ 3.12 µM)
3 | CC(C)(O/N=C(\C(=O)N[C@@H]1C(=O)N2C(C(=O)O)=C(CCNC(=O)Nc3ccc(O)c(O)c3)CSC12)c1csc(N)n1)C(=O)O (stereo partly specified) | 0.125 (≈ 0.192 µM) | 1 (≈ 1.54 µM) | 16 (≈ 24.6 µM) | – | 64 (≈ 98.5 µM) | 8 (≈ 12.3 µM) | 16 (≈ 24.6 µM) | – | – | 2 (≈ 3.08 µM) | 0.25 (≈ 0.385 µM) | 0.5 (≈ 0.77 µM) | 0.125 (≈ 0.192 µM) | 0.125 (≈ 0.192 µM) | 0.125 (≈ 0.192 µM) | 0.015 (≈ 0.0231 µM) | 0.06 (≈ 0.0924 µM) | 64 (≈ 98.5 µM) | 0.125 (≈ 0.192 µM) | 64 (≈ 98.5 µM)
4 | CCOC(=O)c1nc2cc(O)c(O)cc2nc1C(=O)NCC1=C(C(=O)O)N2C(=O)[C@@H](NC(=O)/C(=N\OC(C)(C)C(=O)O)c3csc(N)n3)C2SC1 (stereo partly specified) | 0.015 (≈ 0.0201 µM) | 0.03 (≈ 0.0403 µM) | 2 (≈ 2.69 µM) | – | 0.5 (≈ 0.671 µM) | 0.06 (≈ 0.0806 µM) | 0.06 (≈ 0.0806 µM) | – | – | 0.06 (≈ 0.0806 µM) | 0.008 (≈ 0.0107 µM) | 0.03 (≈ 0.0403 µM) | 0.008 (≈ 0.0107 µM) | 0.008 (≈ 0.0107 µM) | 0.008 (≈ 0.0107 µM) | – | – | – | – | –
5 | CCO/N=C(\C(=O)N[C@@H]1C(=O)N2C(C(=O)O)=C(CNC(=O)c3ccc(O)c(O)c3)CSC12)c1csc(N)n1 (stereo partly specified) | 64 (≈ 114 µM) | 0.5 (≈ 0.889 µM) | 1 (≈ 1.78 µM) | – | 128 (≈ 228 µM) | > 128 | 64 (≈ 114 µM) | – | – | 0.5 (≈ 0.889 µM) | 0.06 (≈ 0.107 µM) | 0.25 (≈ 0.444 µM) | 0.015 (≈ 0.0267 µM) | 0.06 (≈ 0.107 µM) | 0.03 (≈ 0.0533 µM) | 0.008 (≈ 0.0142 µM) | 0.06 (≈ 0.107 µM) | 4 (≈ 7.11 µM) | 0.25 (≈ 0.444 µM) | 2 (≈ 3.56 µM)
